Reference: the supplement of paper PMC11208160

Assay: recombinant barcode read abundance after kanamycin selection (control-corrected) (log10(CPM+1)); higher = more efficient recombination; sequences stand for … in AGTGCAGAGAAAATCGGCCAGTTTTCTCTGCCTGCAGTCCGCATGCCGT…AGATTTATGCAGCGGACTGCCTTTCTCCCAAAGTGATAAACCGGACAGTATCATGGACCGGTTTTCCCGGTAATCCGTATTTGCAAGGTTGGTTTCACT; site = the 11-nt target
How it was run: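 A promoter, a target, a barcode and the first 104 bridge RNA bases under J23119 made up each oligo. Oligos were Gibson-cloned into a vector bearing the other 73 bp and a T7-inducible recombinase, then co-electroporated into E. coli with a donor plasmid and plated in duplicate on chloramphenicol/ampicillin LB agar (control) or chloramphenicol/ampicillin/kanamycin with 0.1 mM IPTG. Recombination efficiency is the averaged, control-corrected counts per million of recombinant-junction barcodes. Reported values are log10(CPM+1).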
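Further: IS621 recombinase and bridge RNA in Escherichia coli cells.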

Sequence | recombinant barcode read abundance (log10)
AAGCGTTCTTGGGTTCTAACCTGTTGCCT (site AAGCGTACTAG) | 0.0209
GATAGTACTTGGGTTCTAACCTGTTGCCT (site GATAGTACTAG) | 1.48
GGACAATCTTGGGTTCTAACCTGTTGCCT (site GGACAATCTAG) | 1.53
GAGTTTCCTTGGGTTCTAACCTGTTGCAG (site GAGTTTCCTCT) | 0.343
ATAGACCCTTGGGTTCTAACCTGTTGCCT (site GTAGACCCTAG) | 0.599
TTCTGAGCTTGGGTTCTAACCTGTTGCCT (site TTCTGTGCTAG) | 0.0128
CTTAGGACTTGGGTTCTAACCTGTTGCCC (site CTTAGGACTGG) | 0.404
TAATGGCCTTGGGTTCTAACCTGTTGCGA (site TAATGGCCTTC) | 0.942
CGAATGTCTTGGGTTCTAACCTGTTGCTG (site CGAATGTCTCA) | 1.2
TGACAGGCTTGGGTTCTAACCTGTTGCAG (site GTACAGGCTCT) | 0.278
AGGTCACCTTGGGTTCTAACCTGTTGCGT (site AGGTCACCTAC) | 2.82
GACGGACCTTGGGTTCTAACCTGTTGCAT (site TGAAAGACTCG) | 0.114
ACAGCTACTTGGGTTCTAACCTGTTGCTT (site GCAGCTACTCA) | 0.0436
GGAGATGCTTGGGTTCTAACCTGTTGCCT (site GGAGAAGCTAG) | 0.783
CTATGGACTTGGGTTCTAACCTGTTGCAC (site CTATGGACTGT) | 1.3
TCCACAGCTTGGGTTCTAACCTGTTGCCT (site TCCACAACTAG) | 0
TAGTACGCTTGGGTTCTAACCTGTTGCAG (site TAGTACGCTCT) | 1.8
TAGGACTCTTGGGTTCTAACCTGTTGCAT (site TAGGACTCTAT) | 1.79
TGCCACCCTTGGGTTCTAACCTGTTGCGT (site TGCCACCCTAC) | 2.14
CGGTAACCTTGGGTTCTAACCTGTTGCCT (site CGGTAACCTAG) | 0.761
GAGTATTCTTGGGTTCTAACCTGTTGCCT (site GAATATTCTAG) | 1.2
CGGATCCCTTGGGTTCTAACCTGTTGCCT (site CTGATCCCTAG) | 0.284

Sequence | recombinant barcode read abundance (log10)
ACACATACTTGGGTTCTAACCTGTTGCCT (site ACGCATACTAG) | 0.104
AAGCACTCTTGGGTTCTAACCTGTTGCCT (site AAGCACTCTAG) | 2.58
AGATTATCTTGGGTTCTAACCTGTTGCCT (site AGATTATCTAG) | 1.32
CTCGTGTCTTGGGTTCTAACCTGTTGCAG (site CTCGTGTCTCT) | 1.95
GGCACAACTTGGGTTCTAACCTGTTGCCT (site GGCACCACTAG) | 0.0796
ATCTTGTCTTGGGTTCTAACCTGTTGCCG (site ATCTTGTCTAG) | 0.264
ATCATTCCTTGGGTTCTAACCTGTTGCCT (site ATCATTCCTAG) | 0.542
CTCCCAACTTGGGTTCTAACCTGTTGCCT (site CTCCCAACTAG) | 0.379
GTCGCTACTTGGGTTCTAACCTGTTGCGG (site GTCGCTACTCC) | 0.785
CGGACGCCTTGGGTTCTAACCTGTTGCCT (site CGGACGCCTAG) | 0.892
CTAGTTGCTTGGGTTCTAACCTGTTGCAA (site CTATTTGCTTT) | 0.0786
AGCCCTCCTTGGGTTCTAACCTGTTGCTC (site AGCCCTCCTCA) | 0.26
CTCGTGTCTTGGGTTCTAACCTGTTGCAG (site CTCTTGTCTCA) | 0.0182
GAAAGTTCTTGGGTTCTAACCTGTTGCCT (site GAAAGTTCTAG) | 1.15
CGCAAATCTTGGGTTCTAACCTGTTGCCT (site CGCAAATCTAG) | 0.0815
GTACGCTCTTGGGTTCTAACCTGTTGCTT (site GGAAGCTCTAA) | 0
TCGCACTCTTGGGTTCTAACCTGTTGCTA (site TCGCACTCTTA) | 0.911
TTCACGCCTTGGGTTCTAACCTGTTGCCT (site TTCCCGCCTAG) | 0.127
TCGCCTTCTTGGGTTCTAACCTGTTGCCT (site TAGCCTTCTAG) | 0.482
CTAGGATCTTGGGTTCTAACCTGTTGCGT (site CTAGTCTCTAC) | 0.152
CAAAGATCTTGGGTTCTAACCTGTTGCTT (site CAAAGATCTAA) | 1.03
TCAGAATCTTGGGTTCTAACCTGTTGCCT (site TCAGAATCTAG) | 0.667

Sequence | recombinant barcode read abundance (log10)
CTACTAGCTTGGGTTCTAACCTGTTGCAA (site CTACTAGCTGT) | 0.0288
TTACGTCCTTGGGTTCTAACCTGTTGCGG (site TTACGTCCTCC) | 1.74
ATCGCTTCTTGGGTTCTAACCTGTTGCCT (site ACCGCTTCTAG) | 0.272
CTACCATCTTGGGTTCTAACCTGTTGCCT (site CTACCACCTAG) | 0.0894
TAGGCGCCTTGGGTTCTAACCTGTTGCAT (site TAGGCGCCTAG) | 0.0713
GCTCGTGCTTGGGTTCTAACCTGTTGCCT (site GCACGTGCTAG) | 0.69
CGTTTCCCTTGGGTTCTAACCTGTTGCAG (site CGTTTCCCTAC) | 0.152
ATTGGCTCTTGGGTTCTAACCTGTTGCCT (site ATTGGATCTAG) | 0.339
GGGTCCACTTGGGTTCTAACCTGTTGCGT (site GGGTCCACTAC) | 2.82
TGATATGCTTGGGTTCTAACCTGTTGCCT (site TGACATGCTAG) | 0.347
ATTCAGACTTGGGTTCTAACCTGTTGCGG (site ATTCAGACTCC) | 2.33
CTACGTTCTTGGGTTCTAACCTGTTGCCT (site CTACGTTCTAG) | 1.05
CCTAATCCTTGGGTTCTAACCTGTTGCGT (site CCTAAACCTAC) | 0.0528
AGTTGCACTTGGGTTCTAACCTGTTGCCT (site AGTTCCACTAG) | 0.11
CTAGGAGCTTGGGTTCTAACCTGTTGCGT (site CTAGAAGCTAC) | 1.84
ATGAGGCCTTGGGTTCTAACCTGTTGCCT (site CTGAGGCCTAG) | 0.115
GGAGCCTCTTGGGTTCTAACCTGTTGCTC (site GGGGCCTCTCA) | 0.177
CTCTAGCCTTGGGTTCTAACCTGTTGCGT (site CTCTATCCTAC) | 0.0754
TGGGATCCTTGGGTTCTAACCTGTTGCAT (site TGGGATCCTAT) | 1.73
TACCCACCTTGGGTTCTAACCTGTTGCCT (site CACCCACCTAG) | 0.169
AAGCGTGCTTGGGTTCTAACCTGTTGCCT (site AAGCGTACTAG) | 1.38
TACGAGGCTTGGGTTCTAACCTGTTGCCT (site TACGCGGCTAG) | 0.0314

Sequence | recombinant barcode read abundance (log10)
GGTCAGTCTTGGGTTCTAACCTGTTGCGG (site GGTCAGTCTCC) | 1.84
TGACGCTCTTGGGTTCTAACCTGTTGCCT (site TGACGCTCTAG) | 0.905
GTAAGGACTTGGGTTCTAACCTGTTGCTT (site GTAAGGACTAA) | 1.16
CTACCATCTTGGGTTCTAACCTGTTGCCT (site CTACCATCTAG) | 0.948
TTGCGAGCTTGGGTTCTAACCTGTTGCAT (site TTGCGAGCTAT) | 1.82
TCTCATGCTTGGGTTCTAACCTGTTGCAT (site TCTCATGCTAT) | 0.224
CTACAATCTTGGGTTCTAACCTGTTGCAT (site CTACAATCTAA) | 0.192
AGTACGCCTTGGGTTCTAACCTGTTGCCT (site TGAACGCCTAG) | 0.07
CACAGACCTTGGGTTCTAACCTGTTGCCT (site GACAGACCTAG) | 0.205
GCGGTGACTTGGGTTCTAACCTGTTGCCT (site CCGGTGACTAG) | 0.172
TCTCATGCTTGGGTTCTAACCTGTTGCAT (site GACGGCACTCC) | 0.0135
CCAAGGCCTTGGGTTCTAACCTGTTGCCT (site GCAAGGCCTAG) | 0.28
CGTCCTCCTTGGGTTCTAACCTGTTGCAT (site CGTCCTCCTAT) | 0.089
CCTGGGACTTGGGTTCTAACCTGTTGCGT (site CCTGGGACTCC) | 0.807
GTGCAACCTTGGGTTCTAACCTGTTGCCT (site AGTGTCACTCC) | 0.056
GCTAAGTCTTGGGTTCTAACCTGTTGCGT (site GCGGAGTCTAC) | 0.166
TTGCATCCTTGGGTTCTAACCTGTTGCAG (site TTGCATCCTCT) | 0.802
TCGGCCTCTTGGGTTCTAACCTGTTGCTA (site CGTCTAGCTAT) | 0.054
GGATCTACTTGGGTTCTAACCTGTTGCCT (site GAATCTACTAG) | 0.174
CGTCTCCCTTGGGTTCTAACCTGTTGCCT (site CGTCTCCCTAG) | 0.451
